From patent US4855304A, “Dinucleoside pyrophosphates and pyrophosphate homologs as plant antivirals” (Repligen Corporation, priority 1985, dated 1989) come the findings set out here.

Read-outs that look alike come from different tables or passages of the source.

The subject of experiment [1] is TMV (tobacco mosaic virus) replication in intact N. glutinosa plants. In words: Antiviral activity in N. glutinosa intact plants, infectivity test (local lesions). The note with it: for induced resistance to TMV infection in the non-treated half-leaf: 1 μM (10^-6 M), in words. The class given is in vivo, tobacco mosaic virus; Nicotiana glutinosa. The procedure: (§1) Nicotiana glutinosa and N. tabacum var. samsum plants were grown in potting medium in greenhouse conditions (25±3° C., and constant illumination). The plants were fertilized with a commercial fertilizer every two weeks. Plants were used at 5-8 leaf stage (Devash, Y., Biggs, S. and Sela, I. [1982] Science 216: 1415-1416; Devash, Y. et al. [1984] Jour. Biol. Chem. 259: 3482-3486).
The ability of the antiviral dinucleotides to inhibit TMV replication in intact N. glutinosa plants (containing N-gene for TMV localization) was determined by infectivity tests. Solutions containing 5 μg/ml TMV, 0.1 μg/ml carborundum, and antiviral dinucleotide were applied to 5 half-leaves of N. glutinosa. The opposite half-leaves served as controls and were inoculated with infecting solution containing TMV and carborundum but no dinucleotides. The infection was allowed to proceed 48 hr. Inhibition of TMV replication was calculated as the percent of local lesions produced in antiviral compound treated half-leaves, as compared to control half-leaves.

Experiment [2] deals with TMV (tobacco mosaic virus) replication in TMV-infected tobacco leaf discs. In words: Antiviral activity in TMV-infected leaf discs (TMV content by ELISA). The class given is cell-based, tobacco mosaic virus; leaf discs of N. tabacum var. samsun. On the set-up: key to TMV content: N.I.: no inhibition. To be noted: for inhibition at 0.1 µM / inhibition at 0.2 µM: Tobacco mosaic virus, read-out: percent inhibition as related to control. The procedure:
Assays for antiviral activity in TMV-infected leaf discs were done using leaves of N. tabacum var. samsun in which TMV is systemically spread. Leaves were mechanically inoculated with purified TMV (5 μg/ml in 0.01M sodium phosphate buffer, pH 7.6, containing 0.1 g/ml of carborundum as an abrasive). Immediately after infection, leaf discs (6.5 mm diameter) were punched out of the inoculated leaves and placed in a beaker containing 0.01M sodium phosphate, pH 7.6.
selected at random from this common pool and placed onto separate petri dishes, each containing 18 ml of 10 mM 4-(2-hydroxyethyl)-1-piperazine ethanesulfonic acid (HEPES)-KOH, pH 7.05, 188 mg/L Na2 HPO4 --7H2 O. […] At the end of the 1 hr incubation, the buffer containing the antiviral dinucleotide was replaced by a buffer lacking the antiviral dinucleotide for another hr. The discs were then washed with 0.01M sodium phosphate, pH 7.6, and were allowed to incubate for an additional 72 hr in phosphate buffer (Devash, Y., Biggs, S. and Sela, I. [1982] Science 216: 1415-1416; Devash, Y. et al. [1984] J. Biol. Chem. 259: 3482-3486). The discs were homogenized in 0.01M sodiuM phosphate buffer, pH 7.6, and the TMV content was determined by enzyme-linked immunosorbent assay (ELISA) as described below.
(§2) The TMV content of the homogenates was determined by ELISA essentially by the method of Clark and Adams ([1977] J. Gen. Virol. 34: 475-483) but with the following order of layers on the microtiter plates.
(§3) (a) the γ-globulin fraction of a serum obtained from a chicken immunized against TMV was absorbed directly to the plate.
(§4) (b) The next layer was the tested sample (at various dilutions) or a series of purified TMV suspensions at known concentrations (calibration curve).
(§5) (c) The third layer was the γ-globulin from the serum of a TMV-immunized rabbit.
(§6) (d) The final layer was goat antibody to rabbit immunoglobulin G conjugated with alkaline phosphatase (Sigma). The release of phosphate from p-nitrophenyl phosphate due to the antibody-conjugated alkaline phosphatase was monitored spectrophotometrically with a Microplate reader (Dynatech Diagnostics, Inc. South Windham, ME) and was proportional to TMV concentration in a log linear manner for about two logs (<2 ng to>200 ng). (Devash, Y., Biggs, S. and Sela, I. [1982] Science 216: 1415-1416)
The γ-globulin fraction of serum obtained from chickens and rabbits immunized against TMV were generous gifts from Professor Ilan Sela, The Hebrew University of Jerusalem, Agriculture Faculty, Rehobot, Israel.
On the technique in general: In an ELISA, binding on a coated surface is turned into a signal by an enzyme label.

Experiment [3] deals with TMV (tobacco mosaic virus) in N. tabacum plants. In words: Root application to N. tabacum intact plants (TMV content by ELISA). The class given is in vivo, tobacco mosaic virus; Nicotiana tabacum. The note with it: for % Protection / ng TMV/g of leaves: 1 μM, roots, 2 hr; for ng TMV/g of leaves: control 200. The procedure: as §1
Nicotiana tabacum plants were used as a source of plant tissue in which TMV is spread systemically.
(a) Root application: N. tabacum plants were removed from their pots and transferred into 50 ml tubes containing 10 ml of 10 mM HEPES-KOH, pH 7.6, and the antiviral dinucleotides. Two hr later, plants were transferred into 50 ml tubes lacking the antiviral compound and were inoculated by TMV as described above. Twenty-four hr later leaves were homogenized in 0.01M sodium phosphate buffer, pH 7.6, (1 g leaves/3 ml buffer) and TMV content was determined by ELISA.
as §2, §3, §4, §5, §6
In order to establish the relationship of the induced resistance to the N-gene for viral localization and to the transmission ability of the compounds, a comparison between leaf application and root application of antiviral dinucleotides to N. tabacum plants was made. N. tabacum plants were removed into vials containing 10 ml of 10 mM HEPES-KOH, pH 7.6, and 1 μM of antiviral dinucleotide. The plant roots were allowed to remain in the solutions for 2 hr and then were transferred to vials containing the buffer without the antiviral compounds.
The plants then were infected with TMV as above. (See section 4. Antiviral activity on N. tabacum intact plants, paragraph [a].) Another group of N. tabacum plants was tested as described in the above-noted section, paragraph (b).

[4] abbreviates: 10 nM (10^-8 M), non-treated half-leaf.
Where [5] appears, read: 10 nM (10^-8 M), treated half-leaf.
The mark [6] stands for this setting: 100 nM (10^-7 M), non-treated half-leaf.
The mark [7] stands for this setting: 100 nM (10^-7 M), treated half-leaf.
Where [8] appears, read: 1000 nM (10^-6 M), non-treated half-leaf.
Setting [9] is: 1000 nM (10^-6 M), treated half-leaf.
The mark [10] stands for this setting: 100 nM, treatment with [Ca^+2] coprecipitation, control 75.
The mark [11] stands for this setting: 100 nM, treatment without [Ca^+2] coprecipitation, control 56.
[12] abbreviates: 200 nM, treatment with [Ca^+2] coprecipitation, control 75.
The mark [13] stands for this setting: 200 nM, treatment without [Ca^+2] coprecipitation, control 56.
[14] abbreviates: 100 nM, treatment with [Ca^+2] coprecipitation.
Where [15] appears, read: 100 nM, treatment without [Ca^+2] coprecipitation.
[16] abbreviates: 200 nM, treatment with [Ca^+2] coprecipitation.
[17] abbreviates: 200 nM, treatment without [Ca^+2] coprecipitation.

By inhibition is commonly meant the relative decrease from the control value, in per cent. As to `Nc1ncnc2c1ncn2[C@@H]1O[C@H](COP(=O)(O)OP(=O)(O)OP(=O)(O)OC[C@H]2O[C@@H](n3cnc4c(N)ncnc43)[C@H](O)[C@@H]2O)[C@@H](O)[C@H]1O` [A5'ppp5'A, diadenosine 5',5"'-p^1,p3 -triphosphate], the “percent protection as compared to control TMV infected leaves” value in experiment [1] (setting [4]) worked out at 80.3%; in experiment [1] (setting [5]), 98.6%; in experiment [1] (setting [6]), 100%; in experiment [1] (setting [7]), 100%; in experiment [1] (setting [8]) it was 100%; in experiment [1] (setting [9]), 100%. For the same compound, the “induced resistance to TMV infection in the non-treated half-leaf” value in experiment [1] is recorded as “resulted in an induced resistance to TMV infection even in the non-treated half-leaf”. The TMV content in experiment [2] (setting [10]) is 65 ngTMV/ml; in experiment [2] (setting [11]), “N.I”; in experiment [2] (setting [12]), 38 ngTMV/ml; in experiment [2] (setting [13]), “N.I”. Besides, the inhibition at 0.1 µM in experiment [2] (setting [14]) was 13%; in experiment [2] (setting [15]) it was 0%. For the same compound, the inhibition at 0.2 µM in experiment [2] (setting [16]) was 50%; in experiment [2] (setting [17]), 0%. In experiment [3], the “% Protection” value is 51%. Also, the “ng TMV/g of leaves” value in experiment [3] is 98 ng TMV/g of leaves.

On to `Nc1ncnc2c1ncn2[C@@H]1O[C@H](COP(=O)(O)OP(=O)(O)OC[C@H]2O[C@@H](n3cnc4c(N)ncnc43)[C@H](O)[C@@H]2O)[C@@H](O)[C@H]1O` [A5'pp5'A, diadenosine 5',5'"-p^1,p^2 -diphosphate], for which the “percent protection as compared to control TMV infected leaves” value in experiment [1] (setting [4]) stood at 68.4%; in experiment [1] (setting [5]) it was 96.0%; in experiment [1] (setting [6]), 54.6%; in experiment [1] (setting [7]), 95.4%; in experiment [1] (setting [8]), 100%; in experiment [1] (setting [9]), 100%. The “induced resistance to TMV infection in the non-treated half-leaf” value in experiment [1] is given as “resulted in an induced resistance to TMV infection even in the non-treated half-leaf”. Also, the TMV content in experiment [2] (setting [10]) is given as 48 ngTMV/ml; in experiment [2] (setting [11]) it was “N.I”; in experiment [2] (setting [12]), 44 ngTMV/ml; in experiment [2] (setting [13]) it was “N.I”. The inhibition at 0.1 µM in experiment [2] (setting [14]) was found to be 36%; in experiment [2] (setting [15]), 0%. The inhibition at 0.2 µM in experiment [2] (setting [16]) turned out to be 41%; in experiment [2] (setting [17]), 0%. The “suppression (inhibition) of the virus” value in experiment [3] (1 μM (10^-6 M), exposure of plant roots) was 98-100%. For the same compound, in experiment [3], the “% Protection” value amounted to 100%. For the same compound, the “ng TMV/g of leaves” value in experiment [3] is reported as 0 ng TMV/g of leaves.
